# The source made the active and inactive calls. The calls are words filed in the database; no cut-off is given here.
# T1: Succinyl-diaminopimelate desuccinylase (Haemophilus influenzae (strain ATCC 51907 / DSM 11121 / KW20 / Rd), UniProt P44514)
# T1 sequence (P44514 whole entry): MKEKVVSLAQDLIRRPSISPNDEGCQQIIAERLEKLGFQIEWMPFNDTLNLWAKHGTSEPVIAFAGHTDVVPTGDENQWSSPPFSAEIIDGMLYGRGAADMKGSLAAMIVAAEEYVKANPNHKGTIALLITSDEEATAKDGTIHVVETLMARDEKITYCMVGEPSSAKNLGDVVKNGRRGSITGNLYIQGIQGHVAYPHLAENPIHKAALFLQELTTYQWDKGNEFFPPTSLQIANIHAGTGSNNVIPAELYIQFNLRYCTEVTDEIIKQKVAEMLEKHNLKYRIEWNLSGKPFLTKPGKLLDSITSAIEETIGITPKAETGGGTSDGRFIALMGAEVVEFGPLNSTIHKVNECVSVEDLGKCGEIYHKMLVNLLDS
# T2: Succinyl-diaminopimelate desuccinylase (Haemophilus influenzae (strain ATCC 51907 / DSM 11121 / KW20 / Rd)) (UniProt P44514)
# T2 sequence (whole entry): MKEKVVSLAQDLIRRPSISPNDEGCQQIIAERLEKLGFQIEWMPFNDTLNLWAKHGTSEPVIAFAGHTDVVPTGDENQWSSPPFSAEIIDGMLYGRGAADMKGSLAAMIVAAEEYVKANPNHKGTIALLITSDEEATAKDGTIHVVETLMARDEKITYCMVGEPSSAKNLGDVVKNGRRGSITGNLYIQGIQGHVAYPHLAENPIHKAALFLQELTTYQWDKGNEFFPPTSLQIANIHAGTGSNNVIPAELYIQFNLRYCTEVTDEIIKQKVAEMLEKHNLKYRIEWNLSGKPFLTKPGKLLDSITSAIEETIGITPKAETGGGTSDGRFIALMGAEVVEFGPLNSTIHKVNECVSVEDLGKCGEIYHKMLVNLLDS
# Columns and labels:
# [1] = target: T1, Succinyl-diaminopimelate desuccinylase; experiment: Inhibition of Haemophilus influenzae DapE at 80 degreeC incubated for 15 mins by ninhydrin based assay
# [2] = target: T1, Succinyl-diaminopimelate desuccinylase; experiment: Inhibition of Haemophilus influenzae DapE at 100 degreeC incubated for 10 mins by ninhydrin based assay
# [3] = target: T2, Succinyl-diaminopimelate desuccinylase (Haemophilus influenzae (strain ATCC 51907 / DSM 11121 / KW20 / Rd)); experiment: Thermal stabilization of Haemophilus influenzae DapE assessed as increase in second melting temperature by SYPRO orange dye based thermal shift assay
# [4] = target: T1, Succinyl-diaminopimelate desuccinylase; experiment: Binding affinity to Haemophilus influenzae DapE assessed as dissociation constant
# [5] = target: T2, Succinyl-diaminopimelate desuccinylase (Haemophilus influenzae (strain ATCC 51907 / DSM 11121 / KW20 / Rd)); experiment: Thermal stabilization of Haemophilus influenzae DapE assessed as increase in first melting temperature by SYPRO orange dye based thermal shift assay
# [6] = substrate: CN(C)[C@@H](CCC[C@H](NC(=O)CCC(=O)O)C(=O)O)C(=O)O; experiment: (§1) Substrate activity at Haemophilus influenzae DapE assessed as Kcat/Km incubated for 10 mins by ninhydrin based assay
# [7] = substrate: CN[C@@H](CCC[C@H](NC(=O)CCC(=O)O)C(=O)O)C(=O)O; experiment: as §1
# [8] = substrate: CN(C)[C@@H](CCC[C@H](NC(=O)CCC(=O)O)C(=O)O)C(=O)O; experiment: Substrate activity at Haemophilus influenzae DapE assessed as Kcat/Km at 80 DegreeC incubated for 15 mins by ninhydrin based assay
# [9] = substrate: CN(C)[C@@H](CCC[C@H](NC(=O)CCC(=O)O)C(=O)O)C(=O)O; experiment: Substrate activity at Haemophilus influenzae DapE assessed as Kcat/Km at 100 DegreeC incubated for 10 mins by ninhydrin assay
IC50 [1],IC50 [2],ΔTm [3],Kd [4],Activity [5],Molecule,kcat/Km [6],kcat/Km [7],kcat/Km [8],kcat/Km [9]
0.89 µM,1.5 µM,3 °C,1320 µM,Active,CN(C)[C@@H](CCC[C@H](NC(=O)CCC(=O)O)C(=O)O)C(=O)O,–,–,–,–
–,–,–,–,Active,CN[C@@H](CCC[C@H](NC(=O)CCC(=O)O)C(=O)O)C(=O)O,–,–,–,–
–,–,–,–,–,"Succinyl-diaminopimelate desuccinylase (Haemophilus influenzae (strain ATCC 51907 / DSM 11121 / KW20 / Rd)), P44514 (protein) MKEKVVSLAQDLIRRPSISPNDEGCQQIIAERLEKLGFQIEWMPFNDTLNLWAKHGTSEPVIAFAGHTDVVPTGDENQWSSPPFSAEIIDGMLYGRGAADMKGSLAAMIVAAEEYVKANPNHKGTIALLITSDEEATAKDGTIHVVETLMARDEKITYCMVGEPSSAKNLGDVVKNGRRGSITGNLYIQGIQGHVAYPHLAENPIHKAALFLQELTTYQWDKGNEFFPPTSLQIANIHAGTGSNNVIPAELYIQFNLRYCTEVTDEIIKQKVAEMLEKHNLKYRIEWNLSGKPFLTKPGKLLDSITSAIEETIGITPKAETGGGTSDGRFIALMGAEVVEFGPLNSTIHKVNECVSVEDLGKCGEIYHKMLVNLLDS",3.49 10^5/M/s,4.4 10^5/M/s,3.49 10^5/M/s,4.03 10^5/M/s
